These results are taken from paper PMC2852430 (Biochemistry, 2010).

Experiment [1] has as its system bovine brain tubulin (BbTb). Put plainly: Association kinetics of ligand binding to BbTb by fluorescence. The note with it: 25°C, […] μM allocolchicine; for kf, apparent second order rate constant of the fast phase of biphasic binding to BbTb: 1 μM BbTb, 20 μM colchicinoid.
The test system of experiment [2] is cells containing human β1. The note with it: cited from earlier work.
Experiment [3] relates to bovine brain tubulin (BbTb). Put plainly: Inhibition of paclitaxel-induced tubulin assembly. The experiment is classed as biochemical. The settings on record: read-out: IC50, inhibition of Taxol-induced assembly of BbTb; 2 μM tubulin.
Experiment [4] relates to bovine brain tubulin (BbTb). The experiment is described as follows: Equilibrium fluorescence titration of allocolchicine with BbTb. The experiment is classed as binding. The settings on record: 25°C.
Experiment [5] addresses chicken erythrocyte tubulin (CeTb), ~95% βVI (Gallus gallus, UniProt P09207). The experiment is described as follows: biochemical. The experiment is classed as biochemical.

Sequence of chicken erythrocyte tubulin (CeTb), ~95% βVI (P09207 whole entry): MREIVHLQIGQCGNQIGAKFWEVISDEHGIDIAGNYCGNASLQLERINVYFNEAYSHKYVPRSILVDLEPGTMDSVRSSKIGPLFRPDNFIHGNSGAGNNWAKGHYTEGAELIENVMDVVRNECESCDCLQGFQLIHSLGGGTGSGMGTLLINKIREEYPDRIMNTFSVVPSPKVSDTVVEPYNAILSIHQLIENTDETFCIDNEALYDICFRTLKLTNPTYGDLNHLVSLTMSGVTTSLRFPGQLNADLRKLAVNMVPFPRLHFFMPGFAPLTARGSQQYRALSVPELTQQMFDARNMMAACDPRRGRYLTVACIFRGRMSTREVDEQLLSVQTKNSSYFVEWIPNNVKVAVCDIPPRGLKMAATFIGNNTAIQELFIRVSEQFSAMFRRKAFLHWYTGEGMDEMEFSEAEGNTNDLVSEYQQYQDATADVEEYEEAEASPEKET
Sequence of chicken erythrocyte tubulin (CeTb), ~95% βVI (P02552 whole entry partner): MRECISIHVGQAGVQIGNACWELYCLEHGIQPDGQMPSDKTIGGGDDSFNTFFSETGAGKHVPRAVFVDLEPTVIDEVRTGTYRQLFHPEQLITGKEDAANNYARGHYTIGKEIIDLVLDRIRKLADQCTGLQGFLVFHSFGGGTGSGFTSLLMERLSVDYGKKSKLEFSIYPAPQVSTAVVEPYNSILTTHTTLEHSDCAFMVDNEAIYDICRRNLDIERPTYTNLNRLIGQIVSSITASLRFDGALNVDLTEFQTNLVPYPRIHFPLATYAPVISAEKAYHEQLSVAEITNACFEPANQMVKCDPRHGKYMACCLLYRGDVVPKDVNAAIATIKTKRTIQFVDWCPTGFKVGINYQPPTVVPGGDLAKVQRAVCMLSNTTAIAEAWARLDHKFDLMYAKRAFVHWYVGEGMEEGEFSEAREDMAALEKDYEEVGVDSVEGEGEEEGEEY

For `COc1cc2c(c(OC)c1OC)-c1ccc(Cl)c(=O)cc1C(NC(C)=O)CC2` (stereo not drawn) [Chlorocolchicine, 10-demethoxy-10-chlorocolchicine], the “kf, apparent second order rate constant of the fast phase of biphasic binding to BbTb” value in experiment [1] is 367 ± 7 M⁻¹ s⁻¹.

`COc1cc2c(cc1O)CC[C@@H]1[C@@H]2CC[C@]2(C)[C@@H](O)CC[C@@H]12` [2-methoxyestradiol]: in experiment [2], the “Sensitivity of cells containing human β1 to ligand” value was “insensitive”.

On to `COC(=O)c1ccc2c(c1)[C@@H](NC(C)=O)CCc1cc(OC)c(OC)c(OC)c1-2` [Allocolchicine, allocolchicine], for which the IC50 in experiment [3] was determined as 0.5 µM. Moreover, in experiment [1], the “kf, apparent second order rate constant of the fast phase of biphasic binding to BbTb” value came to 343 ± 7 M⁻¹ s⁻¹. The “Time for binding to BbTb to attain a plateau” value in experiment [1] (1 μM tubulin) was no more than 600 s. The “Ligand concentration at which fluorescence enhancement plateaus, BbTb” value in experiment [4] (1 μM BbTb) is recorded as “about 20 μM”. Also, the “Association constant (Ka) for BbTb” value in experiment [4] (1 μM tubulin, 10% DMSO, single site isotherm) is 500000 M⁻¹.

Consider `COc1cc([C@@H]2c3cc4c(cc3[C@H](O)[C@H]3COC(=O)[C@H]23)OCO4)cc(OC)c1OC` [Podophyllotoxin, podophyllotoxin], for which the IC50 in experiment [5] turned out to be 25 ± 1 µM. The “IC50 for CeTb assembly relative to IC50 for BbTb” value in experiment [5] (5 μM tubulin, same experimental conditions) is given as “about 15 fold”.

A word on the IC50: it is the point on the concentration scale where inhibition reaches its midpoint.
